Here are results for 5 compounds from US20150038545A1, “HYDROXYPHENYL PYRROLE COMPOUNDS CONTAINING AN HYDROXAMIC ACID AS HDAC INHIBITORS AND MEDICINAL APPLICATIONS THEREOF” (UNIVERSIDAD DEL PAÍS VASCO, priority 2011, published 2015).

The term IC50 denotes the concentration needed to halve the response being measured. One may read the melting point as the temperature of the solid-liquid transition.

In series [1] the test system is SW620. The experiment in a line: Cancer cell growth inhibition (CellTiter-Glo), SW620. The series is classed as cell-based. Conditions: Homo sapiens, SW-620; Colorectal Cancer, SW620, 72 h treatment. The procedure: Cell culture-based assays were used to evaluate the ability of compounds of the invention to inhibit cancer cell growth.
Cells were obtained from the American Type Culture Collection (ATCC). Cells were cultured at 37° C. with 5% CO2 in the appropriate growth medium (see table below), and harvested respectively during the logarithmic growth period and counted with hemocytometer. The cell viability was examined by trypan blue exclusion. Cell concentrations were adjusted to 5.56×10^4 cells/ml with respective medium.
Stock solutions of test compounds and positive drugs Doxorubicin (Zhejiang, Haizheng, China), Cisplatin (Nanjing Zhiyao, China) and Mitomycin (Zhejiang, Haizheng, China) were prepared in dimethyl sulphoxide (DMSO) or PBS at 20 mM.
In order to determine the IC50 for each compound, experiments were carried out in 96-well plates and the cell lines seeded at a density of 5,000 cells/well. […] All treatments were performed in triplicate. 10 μl of drug solution was added to each well and incubated for 72 hours. At the end of the incubation, 100 μl of the CellTiter-Glo Reagent were added to each well and the contents were mixed for 2 munites on an orbital shaker to induce cell lysis. The plate was incubated at room temperature for 10 minutes to stabilize luminiscent signal, and luminiscent was recorded. […] In order to calculate IC50 values, dose-responsive curves were fitted using nonlinear regression model with a sigmoidal dose response.

In series [2] the target is T1, Human HDAC5 (Homo sapiens, UniProt Q9UQL6).
T1 construct: Full length with Nterminal GST tag, MW=150 kDa; GST (N); purchased BioMol, Hamburg, Germany; host or cells: Sf9 cells, baculovirus
T1 sequence (Q9UQL6 1-1123 isoform Q9UQL6-3): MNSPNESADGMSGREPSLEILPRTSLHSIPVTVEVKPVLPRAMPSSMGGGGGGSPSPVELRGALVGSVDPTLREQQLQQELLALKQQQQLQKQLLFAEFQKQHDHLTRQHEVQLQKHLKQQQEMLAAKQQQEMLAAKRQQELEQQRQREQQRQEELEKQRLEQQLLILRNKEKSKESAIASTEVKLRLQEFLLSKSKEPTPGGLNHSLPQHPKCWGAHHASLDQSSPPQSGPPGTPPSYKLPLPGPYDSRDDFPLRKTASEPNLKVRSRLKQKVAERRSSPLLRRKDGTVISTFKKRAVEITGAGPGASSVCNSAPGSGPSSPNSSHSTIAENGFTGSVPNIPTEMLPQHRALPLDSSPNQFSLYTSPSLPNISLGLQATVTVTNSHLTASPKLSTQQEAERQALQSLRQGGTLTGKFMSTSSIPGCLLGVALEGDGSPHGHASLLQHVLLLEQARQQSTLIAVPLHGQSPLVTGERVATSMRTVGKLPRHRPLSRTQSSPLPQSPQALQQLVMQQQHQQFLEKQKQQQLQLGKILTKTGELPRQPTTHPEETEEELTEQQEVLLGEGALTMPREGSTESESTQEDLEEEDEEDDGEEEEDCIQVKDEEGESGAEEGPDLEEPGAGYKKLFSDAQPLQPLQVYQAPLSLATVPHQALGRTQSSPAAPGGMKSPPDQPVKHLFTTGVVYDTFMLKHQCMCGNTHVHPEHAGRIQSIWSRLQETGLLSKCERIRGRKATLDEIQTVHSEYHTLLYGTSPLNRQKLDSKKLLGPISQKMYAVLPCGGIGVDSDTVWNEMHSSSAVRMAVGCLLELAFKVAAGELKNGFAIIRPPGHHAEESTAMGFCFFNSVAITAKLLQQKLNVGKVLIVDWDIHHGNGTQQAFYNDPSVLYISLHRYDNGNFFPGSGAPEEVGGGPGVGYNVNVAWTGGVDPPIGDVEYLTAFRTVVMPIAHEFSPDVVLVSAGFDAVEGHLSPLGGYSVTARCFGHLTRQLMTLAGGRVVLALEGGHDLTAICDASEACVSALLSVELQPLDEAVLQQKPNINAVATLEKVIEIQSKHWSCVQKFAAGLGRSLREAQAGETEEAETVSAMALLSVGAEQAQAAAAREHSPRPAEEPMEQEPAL
The experiment in a line: In vitro HDAC5 inhibition, fluorogenic peptide assay. The series is classed as biochemical. The conditions noted are these: for IC50: read-out: IC50 (nM) of enzyme activity HDAC5. The protocol: All HDAC assays were performed using acetylated AMC-labeled peptide substrate: • Substrate for isoforms HDAC1, 2, 3, 4, 5, 6, 7, 9, 10, 11 and HeLa nuclear extract assays: Acetylated fluorogenic peptide from p53 residues 379-382 (RHKKAc) (BioMol. Cat. # KI-104). • Substrate for HDAC8 assays: Acetylated fluorogenic peptide from p53 residues 379-382 (RHKAcKAc) (BioMol. Cat. # KI-178).
Enzymes: • HDAC1 assay: 75 nM Human HDAC1 (GenBank Accession No. NM_004964): Full length with C-terminal GST tag, MW=79.9 kDa, expressed by baculovirus expression system in Sf9 cells (BioMol. Cat. # SE-456). • HDAC2 assay: 5 nM Human HDAC2 (GenBank Accession No. Q92769): Full length with C-terminal His tag, MW=60 kDa, expressed by baculovirus expression system in Sf9 cells (BioMol. Cat. # SE-500). • HDAC3 assay: 2.3 nM Human HDAC3/NcoR2 (GenBank Accession No. NM_003883 for HDAC3, GenBank Accession No.NM_006312 for NcoR2): Complex of human HDAC3, full length with C-terminal His tag, MW=49.7 kDa, and human NCOR2, N-terminal GST tag, MW=39 kDa, co-expressed in baculovirus expression system (BioMol. Cat. # SE-507). • HDAC4 assay: 266 nM Human HDAC4 (GenBank Accession No. NM_006037): Amino acids 627-1085 with N-terminal GST tag, MW=75.2 kDa, expressed in baculovirus expression system (BioMol, Hamburg, Germany). • HDAC5 assay: 588 nM Human HDAC5 (GenBank Accession No. NM_001015053): Full length with Nterminal GST tag, MW=150 kDa, expressed by baculovirus expression system in Sf9 cells (BioMol, Hamburg, Germany). • HDAC6 assay: 13 nM Human HDAC6 (GenBank Accession No. BC069243): Full length with N-terminal GST tag, MW=159 kDa, expressed by baculovirus expression system in Sf9 cells (BioMol. Cat. # SE-508). • HDAC7 assay: 962 nM Human HDAC7 (GenBank Accession No. AY302468): Amino acids 518-end with N-terminal GST tag, MW=78 kDa, expressed in baculovirus expression system (BioMol, Hamburg, Germany). • HDAC8 assay: 119 nM Human HDAC8 (GenBank Accession No. NM018486): Full length, MW=42 kDa, expressed in an E. coli expression system (BioMol. […]
The reactions were carried out in a 96-well microplate for fluorometry in a 50 μl reaction volume. […] The reaction was allowed to develop for 45 minutes at 30° C. with 5% CO2; then the fluorescent signal was measured with an excitation wavelength at 360 nm and an emission wavelength at 460 nm in a microplate-reading fluorometer (GeminiXS; Molecular Devices, Sunnyvale, Calif.). […] IC50 was calculated by fitting the experimental data to a dose-response curve. […]

`O=C(CCCCCNC(=O)c1[nH]c(-c2ccc(O)cc2)cc1-c1ccoc1)NO` [Example 5, 3-(3-furyl)-N-(5-(hydroxycarbamoyl)pentyl)-5-(4-hydroxy-phenyl)-1H-pyrrole-2-carboxamide]: the figures for the IC50 in series [1] and in series [2] were 0.3 µM and 14 nM, respectively.

Consider `COc1ccc(-c2cc(-c3ccccc3)[nH]c2C(=O)NCCCCCC(=O)NO)cc1` [Compound A, N-[6-(hydroxyamino)-6-oxohexyl]-3-(4-methoxyphenyl)-5-phenyl-1H-pyrrole-2-carboxamide, reference compound], for which the “Selectivity against HDAC6 (IC50 HDACx/IC50 HDAC6) HDAC5” value in series [2] (IC50 HDAC5/IC50 HDAC6) was 32.7. In addition, the IC50 in series [2] came to 655 nM.

With `O=C(CCCCCNC(=O)c1[nH]c(-c2ccc(O)cc2)cc1-c1ccsc1)NO` [Example 6, N-(5-(hydroxycarbamoyl)pentyl)-5-(4-hydroxyphenyl)-3-(3-thienyl)-1H-pyrrole-2-carboxamide], the IC50 in series [1] came out at 0.67 µM; in series [2], 43 nM.

Turning to `O=C(CCCCCNC(=O)c1[nH]c(-c2ccccc2)cc1-c1ccc(O)cc1)NO` [Example 1, N-(6-(hydroxyamino)-6-oxohexyl)-3-(4-hydroxyphenyl)-5-phenyl-1H-pyrrole-2-carboxamide], the melting point lay in the range of 99 to 100 °C. In addition, in series [1], half-maximal inhibition (IC50) required 1.31 µM.

In turn, `O=C(CCCCCNC(=O)c1[nH]c(-c2ccc(O)cc2)cc1-c1ccccc1)NO` [Example 2, N-(6-(hydroxyamino)-6-oxohexyl)-5-(4-hydroxyphenyl)-3-phenyl-1H-pyrrole-2-carboxamide] came in with a melting point of 224 to 225 °C. In series [1], this compound had an IC50 of 1.48 µM.
